Reference: PMC6476181 (ChemMedChem, 2019)

What was measured:
[1] = system: 57 diverse kinases; assay: Kinase selectivity panel of 57 diverse kinases; type: biochemical; settings: 10 µM
[2] = system: cancer cell motility and migration; assay: Wound scratch assay; type: cell-based
[3] = system: proliferation and viability of cells; assay: Trypan blue exclusion, cells treated for 3 days; type: cell-based; settings: comparison against genistein at 10 µM, p < 0.05
[4] = molecular target: T1, MEK7 (Homo sapiens, UniProt O14733); settings: cited from earlier work
T1 sequence (O14733 1-419): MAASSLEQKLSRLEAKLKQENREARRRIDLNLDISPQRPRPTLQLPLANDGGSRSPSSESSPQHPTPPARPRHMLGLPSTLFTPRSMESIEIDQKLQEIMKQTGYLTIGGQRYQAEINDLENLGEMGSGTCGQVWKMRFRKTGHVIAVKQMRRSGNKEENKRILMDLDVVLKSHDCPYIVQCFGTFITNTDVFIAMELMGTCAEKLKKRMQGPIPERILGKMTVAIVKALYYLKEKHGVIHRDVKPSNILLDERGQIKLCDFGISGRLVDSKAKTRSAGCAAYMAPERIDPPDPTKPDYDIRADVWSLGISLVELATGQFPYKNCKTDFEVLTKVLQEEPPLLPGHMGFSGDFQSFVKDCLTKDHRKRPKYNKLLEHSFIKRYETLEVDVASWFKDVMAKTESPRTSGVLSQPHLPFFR

[5] = molecular target: T2, MEK4 (Homo sapiens, UniProt P45985); settings: cited from earlier work
T2 sequence (P45985 1-399): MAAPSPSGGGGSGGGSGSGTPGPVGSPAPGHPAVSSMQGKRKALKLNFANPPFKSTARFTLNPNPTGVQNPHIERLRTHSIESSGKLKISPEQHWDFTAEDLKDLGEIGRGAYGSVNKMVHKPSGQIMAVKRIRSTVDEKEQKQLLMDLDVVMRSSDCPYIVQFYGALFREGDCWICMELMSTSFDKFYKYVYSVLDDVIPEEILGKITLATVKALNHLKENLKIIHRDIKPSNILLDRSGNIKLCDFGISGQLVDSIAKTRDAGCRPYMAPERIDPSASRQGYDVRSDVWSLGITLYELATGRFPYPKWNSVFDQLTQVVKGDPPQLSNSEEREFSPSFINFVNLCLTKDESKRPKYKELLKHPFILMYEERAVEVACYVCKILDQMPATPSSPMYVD

[6] = system: Cot; settings: ref 10a; cited from earlier work
[7] = molecular target: T2, MEK4; assay: TR-FRET displacement of active site tracer; type: binding; settings: 10 µM

O=C(O)c1ccc(-c2n[nH]c3cc(F)ccc23)cc1 [Compound 6ff, 4-(6-fluoro-2H-indazol-3-yl)benzoic acid]
number of kinases inhibited > 35% out of 57 tested [1]: 12
S(35) value ([1]; 57 kinases): 0.21
efficacy in wound scratch assay ([2]; 10 µM): no efficacy
efficacy in wound scratch assay ([2]; 25 µM): no efficacy
toxicity (proliferation and viability, trypan blue exclusion) [3]: less toxicity compared to the promiscuous kinase inhibitor genistein

COc1ccc2c(Cc3ccc(O[Si](C)(C)C(C)(C)C)cc3)c3[n+](cc2c1OC)CCc1cc2c(cc1-3)OCO2 [HWY336]
inhibition of MEK7 [4]: inhibits both MEK4 and MEK7
inhibition of MEK4 [5]: inhibits both MEK4 and MEK7

O=c1c(-c2ccc(O)c(O)c2)coc2cc(O)ccc12 [THIF, 7, 3’, 4’-trihydroxyisoflavone]
inhibition of Cot activity [6]: inhibits Cot activity

CN[C@@H]1C[C@H]2O[C@@](C)([C@@H]1OC)n1c3ccccc3c3c4c(c5c6ccccc6n2c5c31)C(=O)NC4 [staurosporine]
TR-FRET ratio, displacement of tracer bound to MEK4 active site [7]: background levels
